# Results as given in US7550133B2, “Respiratory drug condensation aerosols and methods of making and using them” (Alexza Pharmaceuticals, Inc., priority 2002, dated 2009).
# Assays:
# [1] = Volatilization Using Stainless Steel Foil; HPLC analysis of the condensation aerosol; format: physicochemical; conditions: for Purity of the aerosol (purity analysis): single drug on stainless steel foil substrate (5 cm^2), film thickness about 0.4-1.2 μm, capacitor charged to 15 V; for Purity of each drug in the aerosol from a mixture of albuterol and flunisolide: about 0.20 mg flunisolide and about 0.16 mg albuterol co-coated on stainless steel foil (5 cm^2), film about 0.64 μm, capacitor 15.5 V
# Excerpt: Strips of clean 304 stainless steel foil (0.0125 cm thick, Thin Metal Sales) having dimensions 1.3 cm by 7.0 cm were dip-coated approximately 4.5 to 5 cm on the strip with an asthma drug solution prepared as described above. The foil was then partially dipped three times into solvent to rinse drug off of the last 2-3 cm of the dipped end of the foil. Alternatively, the drug-coating from this bottom 2-3 cm area was carefully taken off with a razor blade. The final coated area was between 2.0-2.5 cm by 1.3 cm on both sides of the foil, for a total area of between 5.2-6.5 cm^2. Foils were prepared as stated above and then some were extracted with methanol or acetonitrile as standards. The amount of drug was determined from quantitative HPLC analysis. Using the known drug-coated surface area, the thickness was then calculated.
# After drying, the drug-coated foil was placed into a volatilization chamber constructed of a Delrin block (the airway) and brass bars, which served as electrodes. The dimensions of the airway were 1.3 cm high by 2.6 cm wide by 8.9 cm long. The drug-coated foil was placed into the volatilization chamber such that the drug-coated section was between the two sets of electrodes. After securing the top of the volatilization chamber, the electrodes were connected to a 1 Farad capacitor (Phoenix Gold). The back of the volatilization chamber was connected to a two micron Teflon® filter (Savillex) and filter housing, which were in turn connected to the house vacuum. Sufficient airflow was initiated (typically 30 L/min=1.5 m/sec), at which point the capacitor was charged with a power supply, typically to between 14-17 Volts.
# The circuit was closed with a switch, causing the drug-coated foil to resistively heat to temperatures of about 280-430° C. (as measured with an infrared camera (FLIR Thermacam SC3000)), in about 200 milliseconds. After the drug had vaporized, airflow was stopped and the Teflon® filter was extracted with acetonitrile. Drug extracted from the filter was analyzed generally by HPLC UV absorbance generally at 225 nm using a gradient method aimed at detection of impurities to determine percent purity. Also, the extracted drug was quantified to determine a percent yield, based on the mass of drug initially coated onto the substrate. A percent recovery was determined by quantifying any drug remaining on the substrate and chamber walls, adding this to the quantity of drug recovered in the filter and comparing it to the mass of drug initially coated onto the substrate.
# [2] = Volatilization from stainless steel cylinder (flashbar); HPLC analysis of the condensation aerosol; format: physicochemical; conditions: drug dip coated on stainless steel flashbar, capacitors 20.5 volts, heated to about 400° C. within about 200 milliseconds, 15 L/min room air
# Excerpt: A hollow stainless steel cylinder with thin walls, typically 0.12 mm wall thickness, a diameter of 13 mm, and a length of 34 mm was cleaned in dichloromethane, methanol, and acetone, then dried, and fired at least once to remove any residual volatile material and to thermally passivate the stainless steel surface. The substrate was then dip-coated with a drug coating solution (prepared as described above). The dip-coating was done using a computerized dipcoating machine to produce a thin layer of drug on the outside of the substrate surface. The substrate was lowered into the drug solution and then removed from the solvent at a rate of typically 5-25 cm/sec. (To coat larger amounts of material on the substrate, the substrate was removed more rapidly from the solvent or the solution used was more concentrated.) The substrate was then allowed to dry for 30 minutes inside a fume hood. If either dimethylformamide (DMF) or a water mixture was used as a dip-coating solvent, the substrate was vacuum dried inside a desiccator for a minimum of one hour. The drug-coated portion of the cylinder generally has a surface area of 8 cm^2. By assuming a unit density for the drug, the initial drug coating thickness was calculated. The amount of drug coated onto the substrates was determined in the same manner as that described above: the substrates were coated, then extracted with methanol or acetonitrile and analyzed with quantitative HPLC methods, to determine the mass of drug coated onto the substrate.
# The drug-coated substrate was placed in a surrounding glass tube connected at the exit end via Tygon® tubing to a filter holder fitted with a Teflon® filter (Savillex). The junction of the tubing and the filter was sealed with paraffin film. The substrate was placed in a fitting for connection to two 1 Farad capacitors wired in parallel and controlled by a high current relay. The capacitors were charged by a separate power source to about 18-22 Volts and most of the power was channeled to the substrate by closing a switch and allowing the capacitors to discharge into the substrate. The substrate was heated to a temperature of between about 300-500° C. in about 100 milliseconds. The heating process was done under an airflow of 15 L/min, which swept the vaporized drug aerosol into a 2 micron Teflon® filter.
# After volatilization, the aerosol captured on the filter was recovered for quantification and analysis. The quantity of material recovered in the filter was used to determine a percent yield, based on the mass of drug coated onto the substrate. The material recovered in the filter was also analyzed generally by HPLC UV absorbance at typically 225 nm using a gradient method aimed at detection of impurities, to determine purity of the thermal vapor. Any material deposited on the glass sleeve or remaining on the substrate was also recovered and quantified to determine a percent total recovery ((mass of drug in filter+mass of drug remaining on substrate and glass sleeve)/mass of drug coated onto substrate). For compounds without UV absorption GCMS or LC/MS was used to determine purity and to quantify the recovery. Some samples were further analyzed by LC/MS to confirm the molecular weight of the drug and any degradants.
# About 1.2 mg of albuterol was dip coated onto the stainless steel surface of a flashbar apparatus. (The flashbar is a cylinder 3.5 cm long and 1.3 cm in diameter consisting of a hollow tube of 0.005″ thick stainless steel). Brass electrodes were connected to either end of the steel cylinder. The coated flashbar was secured in an electrical mount, which connected to two 1.0 Farad capacitors in parallel. An airway was provided by a 2 cm diameter glass sleeve placed around the flashbar. 15 L/min of room air were pulled by a house vacuum through the vaporization chamber and a filter housing, which contained a two-micron Teflon filter. […]
Compound,Purity of the aerosol (purity analysis) [1],Purity of the aerosol (purity analysis by HPLC) [2],Purity of each drug in the aerosol from a mixture of albuterol and flunisolide [1]
CCCn1c(=O)c2[nH]c(C3CCCC3)nc2n(CCC)c1=O [CPX],99.8%,,
CC(C)Cn1c(=O)n(C)c(=O)c2[nH]cnc21 [IBMX],99.9%,,
CC(C)(C)NCC(O)c1ccc(O)c(CO)c1 (centres unmarked) [albuterol],,94.4%,97.2%
CCCC1O[C@@H]2C[C@H]3[C@@H]4CCC5=CC(=O)C=C[C@]5(C)[C@H]4[C@@H](O)C[C@]3(C)[C@]2(C(=O)CO)O1 (some centres unmarked) [budesonide],,70.5%,
CC(C)C(=O)OCC(=O)[C@@]12O[C@H](C3CCCCC3)O[C@@H]1C[C@H]1[C@@H]3CCC4=CC(=O)C=C[C@]4(C)[C@H]3[C@@H](O)C[C@@]12C [ciclesonide],99.03%,,
CCC(=O)O[C@]1(C(=O)SCF)[C@H](C)C[C@H]2[C@@H]3C[C@H](F)C4=CC(=O)C=C[C@]4(C)[C@@]3(F)[C@@H](O)C[C@@]21C [fluticasone propionate],91.6%,,
CC(C)NCC(O)c1cc(O)cc(O)c1 (centres unmarked) [metaproterenol],,99.1%,
flunisolide,94.9%,97.6%,94.5%

# Continued, values first:
Purity of the aerosol (purity analysis) [1],Purity of the aerosol (purity analysis by HPLC) [2],Purity of each drug in the aerosol from a mixture of albuterol and flunisolide [1],Compound
,99.3%,,CC(C)(C)NCC(O)c1cc(O)cc(O)c1 (centres unmarked) [terbutaline]
,about 99.5%,,Cn1c(=O)c2[nH]cnc2n(C)c1=O [theophylline]
,about 92.0%,,CC1(C)O[C@@H]2C[C@H]3[C@@H]4CCC5=CC(=O)C=C[C@]5(C)[C@@]4(F)[C@@H](O)C[C@]3(C)[C@]2(C(=O)CO)O1 [triamcinolone acetonide]
